In patent US20260262643A1, “HERBICIDAL BENZOXAZINES” (FMC CORPORATION, priority 2022, published 2026):

Columns and labels:
blackgrass [1] = assay: Test C preemergence; format: in vivo, Alopecurus myosuroides; conditions: Preemergence, 1000 g ai/ha; visual rating after 10 days, 0 to 100 scale (0 no effect, 100 complete control)
In short: (§1)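 Pre: seeds in loam/sand, directed soil spray. Post: 1–2 leaf plants, 2–10 cm. Cmpd in non-phytotoxic solvent + surfactant. Greenhouse 10 d; visual rating vs untreated, 0 = none, 100 = complete control.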

ducksalad = assay: Test D flooded paddy test; format: in vivo, Heteranthera limosa; conditions: 250 g ai/ha, applied to paddy water, visual rating after 13 to 14 days, scale 0 to 100 (0 no effect, 100 complete control)
In short: (§2)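 Post-flood water application at the 2-leaf stage; 3 cm flood depth kept constant; visual control rating 0–100 after 13–14 days greenhouse growth.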

green foxtail [2] = assay: Test C preemergence; format: in vivo, Setaria viridis; conditions: Preemergence, 1000 g ai/ha; visual rating after 10 days, 0 to 100 scale (0 no effect, 100 complete control)
In short: as §1

ragweed [3] = assay: Test C preemergence; format: in vivo, Ambrosia artemisiifolia; conditions: Preemergence, 1000 g ai/ha; visual rating after 10 days, 0 to 100 scale (0 no effect, 100 complete control)
In short: as §1

sedge, umbrella = assay: Test D flooded paddy test; format: in vivo, Cyperus difformis; conditions: 250 g ai/ha, applied to paddy water, visual rating after 13 to 14 days, scale 0 to 100 (0 no effect, 100 complete control)
In short: as §2

barnyardgrass [4] = assay: Test D flooded paddy test; format: in vivo, Echinochloa crus-galli; conditions: 250 g ai/ha, applied to paddy water, visual rating after 13 to 14 days, scale 0 to 100 (0 no effect, 100 complete control)
In short: as §2

pigweed, palmer [5] = assay: Test C postemergence; format: in vivo, Amaranthus palmeri; conditions: Postemergence, 1000 g ai/ha, 10 days, visual 0 to 100 scale (0 no effect, 100 complete control)
In short: as §1

ryegrass, Italian [6] = assay: Test C preemergence; format: in vivo, Lolium multiflorum; conditions: Preemergence, 1000 g ai/ha; visual rating after 10 days, 0 to 100 scale (0 no effect, 100 complete control)
In short: as §1

barnyardgrass [7] = assay: Test C postemergence; format: in vivo, Echinochloa crusgalli; conditions: Postemergence, 1000 g ai/ha
In short: as §1

horseweed = assay: Test C postemergence; format: in vivo, Erigeron canadensis; conditions: Postemergence, 1000 g ai/ha, 10 days, visual 0 to 100 scale (0 no effect, 100 complete control)
In short: as §1

kochia [8] = assay: Test C preemergence; format: in vivo, Bassia scoparia; conditions: Preemergence, 1000 g ai/ha; visual rating after 10 days, 0 to 100 scale (0 no effect, 100 complete control)
In short: as §1

galium = assay: Test C postemergence; format: in vivo, Galium aparine; conditions: Postemergence, 1000 g ai/ha, 10 days, visual 0 to 100 scale (0 no effect, 100 complete control)
In short: as §1

pigweed, palmer [9] = assay: Test C preemergence; format: in vivo, Amaranthus palmeri; conditions: Preemergence, 1000 g ai/ha; visual rating after 10 days, 0 to 100 scale (0 no effect, 100 complete control)
In short: as §1

barnyardgrass [10] = assay: Test C preemergence; format: in vivo, Echinochloa crusgalli; conditions: Preemergence, 1000 g ai/ha; visual rating after 10 days, 0 to 100 scale (0 no effect, 100 complete control)
In short: as §1

rice = assay: Test D flooded paddy test; format: in vivo, Oryza sativa; conditions: 250 g ai/ha, applied to paddy water, visual rating after 13 to 14 days, scale 0 to 100 (0 no effect, 100 complete control)
In short: as §2

kochia [11] = assay: Test C postemergence; format: in vivo, Bassia scoparia; conditions: Postemergence, 1000 g ai/ha, 10 days, visual 0 to 100 scale (0 no effect, 100 complete control)
In short: as §1

ragweed [12] = assay: Test C postemergence; format: in vivo, Ambrosia artemisiifolia; conditions: Postemergence, 1000 g ai/ha, 10 days, visual 0 to 100 scale (0 no effect, 100 complete control)
In short: as §1

blackgrass [13] = assay: Test C postemergence; format: in vivo, Alopecurus myosuroides; conditions: Postemergence, 1000 g ai/ha, 10 days, visual 0 to 100 scale (0 no effect, 100 complete control)
In short: as §1

ryegrass, Italian [14] = assay: Test C postemergence; format: in vivo, Lolium multiflorum; conditions: Postemergence, 1000 g ai/ha, 10 days, visual 0 to 100 scale (0 no effect, 100 complete control)
In short: as §1

green foxtail [15] = assay: Test C postemergence; format: in vivo, Setaria viridis; conditions: Postemergence, 1000 g ai/ha, 10 days, visual 0 to 100 scale (0 no effect, 100 complete control)
In short: as §1

Compound	Plant response rating, Blackgrass (blackgrass [1])	Plant response rating, Ducksalad (Flood) (ducksalad)	Plant response rating, Foxtail, Green (green foxtail [2])	Plant response rating, Ragweed (ragweed [3])	Plant response rating, Sedge, Umbrella (Flood) (sedge, umbrella)	Plant response rating, Barnyardgrass (Flood) (barnyardgrass [4])	Plant response rating, Pigweed, Palmer (pigweed, palmer [5])	Plant response rating, Ryegrass, Italian (ryegrass, Italian [6])	Plant response rating, Horseweed (horseweed)	Plant response rating, Kochia (kochia [8])	Plant response rating, Galium (galium)	Plant response rating, Pigweed, Palmer (pigweed, palmer [9])	Plant response rating, Barnyardgrass (barnyardgrass [10])	Plant response rating, Rice (Flood) (rice)	Plant response rating, Kochia (kochia [11])	Plant response rating, Ragweed (ragweed [12])	Plant response rating, Blackgrass (blackgrass [13])	Plant response rating, Ryegrass, Italian (ryegrass, Italian [14])	Plant response rating, Foxtail, Green (green foxtail [15])	also measured
Cc1ncc(-c2cccc(C(=O)N3C[C@H](C)Oc4c(Cl)cccc43)c2)s1 [Compound 296]	50	0	100	70	0	0	90	80	60	90	100	100	100	0	90	80	80	30	80	Plant response rating, Barnyardgrass (barnyardgrass [7]; 10 days, visual 0 to 100 scale (0 no effect, 100 complete control)): 50
Cc1cnn(-c2cccc(C(=O)N3C[C@H](C)Oc4c(Cl)cccc43)c2)c1 [Compound 207]	20	0	90	0	0	0	90	90	10	30	10	90	90	0	20	10	10	70	10	Plant response rating, Barnyardgrass (barnyardgrass [7]; 0 to 100 scale, 0 no effect, 100 complete control): 30
